According to patent publication US9695133B2, “Quinazolinone-based oncogenic-RAS-selective lethal compounds and their use” (THE TRUSTEES OF COLUMBIA UNIVERSITY IN THE CITY OF NEW YORK, priority 2012, dated 2017):
Where two headings read alike, the source gives them in different places.

Experiments:
[1] = tested on: BJeH, BJeHLT, BJeLR and DRD cells; assay type: cell-based; settings: for RSL phenotype (oncogenic-RAS-selective lethality): four BJ-derived cell lines, with and without HRAS G12V; for Selectivity score: EC50 (BJeH)/EC50 (BJeLR)
[2] = tested on: HT-1080 cells; assay: Cell death rescue by ALOX and COX inhibitors in HT-1080 cells; assay type: cell-based, human; settings: for suppression of cell death induced by RSL compounds / suppression of cell death induced by non-RSL compounds: HT-1080 cells, 10 μM BAI or 50 μM ZIL, 24 hours; for suppression of erastin-induced cell death: inhibitor concentrations of Table 2
Description: HT-1080 cells were seeded in 384-well plates, treated with the indicated amount of compounds with or without 10 μM of BAI or 50 μM of ZIL for 24 hours. The percent growth inhibition was determined using alamar blue.
Lethal compounds were added to HT-1080 cells in the presence or absence of ALOX or COX inhibitors in a 2-fold dilution series. The concentrations of the inhibitors are listed along with vendor information in Table 2. Cell viability was determined using alamar blue and percent growth inhibition calculated as described above.

[3] = tested on: BJeLR cells; assay: RSL testing: growth inhibition (alamar blue) in BJeLR cells; assay type: cell-based; settings: Homo sapiens
Description: Cell viability was determined using alamar blue and percent growth inhibition computed as described previously (Id.).

[4] = tested on: GPX4; assay: GPX4 knockdown (siGPX4) in HT-1080 cells
[5] = tested on: GFP-ALOX5; assay: GFP-ALOX5 translocation in HT-1080 cells; assay type: cell-based, human
Description: HT-1080 cells stably expressing GFPALOX5 were treated with the indicated compounds under the conditions detailed in FIG. 13b. […] Note that digioxin (DIG) did translocate GFP-ALOX5 to the perinuclear membrane region in a small portion of the cell population (arrow). Digioxin is known to increase cellular calcium concentration that can translocate GFP-ALOX5, similarly to ionomycin. Scale bars, 60 μm.
(§1) A cDNA of ALOX5 (GeneBank ID: BC130332.1) was cloned into a pBabe-puro vector to express GFP fused ALOX5 (N-terminal GFP fusion) in cells. The plasmid was transfected into PLAT-GP cells (Cell Biolabs Inc., cat # RV-103, San Diego, Calif.) along with a pVSV-G helper plasmid to produce retrovirus harboring the expression plasmid. 0.2 million target cells (BJeH, BJeHLT, BJeLR or HT-1080 cells) were seeded in 10 cm tissue culture dishes and incubated in the tissue culture incubator for 1 day. A frozen stock of retrovirus solution was thawed at 37° C. for 2 minutes, and polybrene (Sigma, cat. # H9268) was added at a final concentration of 8 μg/mL. Culture medium was replaced with virus/polybrene mix and the culture dish was incubated for two hours with rocking every 30 minutes. After 2 hours, 10 mL of growth media was added to culture dish, and the culture was incubated further for 2 days. Cell lines stably expressing GFP-ALOX5 protein were selected using 1.5 μg/mL puromycin and used for the GFP-ALOX5 translocation assay.
Next, GFP-ALOX5-expressing HT-1080 cells were treated with these non-RSL and RSL compounds and changes in the location of GFP-ALOX5 were monitored as a measure of ALOX protein activation. […] Digoxin is known to elevate intracellular calcium (McGarry et al., 1993), which is likely to cause the translocation of GFP-ALOX5, similar to ionomycin. Note that ionomycin and digoxin are not RSL compounds and induce translocation of GFP-ALOX5 non-specifically in the BJ-derived cell lines (FIGS. 7 and 13). The results highlight the importance of selective ALOX activation for the induction of the RSL phenotype.

[6] = tested on: HT-1080 cells; settings: 24 hours
[7] = tested on: U-2 OS cells; assay: U-2 OS cell viability (alamar blue) with TBHP or NAC; assay type: cell-based
[8] = tested on: GFP-ALOX5; assay: GFP-ALOX5 translocation in BJ-derived cell lines; assay type: cell-based, human
Description: as §1
ALOX5 is one of the six human ALOX genes and plays a critical role in leukotriene synthesis. In the basal state, the ALOX5 protein remains in the nucleus; however, upon activation, it translocates to the nuclear membrane (Chen et al., 2001). […] Second, calcium chelators were not effective in suppressing erastin-induced cell death (Wolpaw et al., 2011).

[9] = cell line not in head, footnote names EC50 (BJeLR), read-out: EC50

CC(C)Oc1ccc(C=O)cc1-n1c(CN2CCN(C(=O)COc3ccc(Cl)cc3)CC2)nc2ccccc2c1=O [AE, 3-(2-((4-(2-(4-chlorophenoxy)ethanoyl)piperazin-1-yl)methyl)-4-oxoquinazolin-3(4H)-yl)-4-isopropoxybenzaldehyde]
RSL phenotype (oncogenic-RAS-selective lethality) [1]: retained the RSL phenotype

Nc1nc[nH]n1 [ATZ]
RSL phenotype (oncogenic-RAS-selective lethality) [1]: none of the other anti-oxidant targeting compounds displayed an RSL phenotype

O=c1cc(-c2ccccc2)oc2cc(O)c(O)c(O)c12 [BAI, Baicalein]
suppression of cell death induced by RSL compounds [2]: strongly suppressed cell death induced by all RSL compounds
suppression of cell death induced by non-RSL compounds [2]: not able to suppress cell death induced by eleven non-RSL compounds
suppression of erastin-induced cell death [2]: strongly suppressed erastin-induced cell death

N#CC(=Cc1ccc(O)c(O)c1)C(=O)OCC=Cc1ccccc1 [CDC, cinnamyl-3,4-dihydroxy-a-cyanocinnamate]
suppression of erastin-induced cell death [2]: strongly suppressed erastin-induced cell death

CCN(CC)Cc1ccc(OC(C)C)c(-n2c(CN3CCN(C(=O)COc4ccc(Cl)cc4)CC3)nc3ccccc3c2=O)c1 [Compound 15]
Selectivity score [1]: 4.1
EC50 ([3]; BJeLR, read-out: EC50 (BJeLR)): 1680 nM

CC(C)Oc1ccc(N2CCN(C)CC2)cc1-n1c(CN2CCN(C(=O)COc3ccc(Cl)cc3)CC2)nc2ccccc2c1=O [Compound 17]
Selectivity score [1]: 7.3
EC50 ([3]; BJeLR, read-out: EC50 (BJeLR)): 900 nM

COCCN(CCOC)Cc1ccc(OC(C)C)c(-n2c(CN3CCN(C(=O)COc4ccc(Cl)cc4)CC3)nc3ccccc3c2=O)c1 [Compound 18]
Selectivity score [1]: 5.9
EC50 ([3]; BJeLR, read-out: EC50 (BJeLR)): 140 nM

CC(C)Oc1ccc(CN(C)CCC#N)cc1-n1c(CN2CCN(C(=O)COc3ccc(Cl)cc3)CC2)nc2ccccc2c1=O [Compound 19]
Selectivity score [1]: 5.1
EC50 ([3]; BJeLR, read-out: EC50 (BJeLR)): 260 nM

CC(C)Oc1ccc(CN(C)CCO)cc1-n1c(CN2CCN(C(=O)COc3ccc(Cl)cc3)CC2)nc2ccccc2c1=O [Compound 21]
Selectivity score [1]: 3.7
EC50 ([3]; BJeLR, read-out: EC50 (BJeLR)): 360 nM

CC(C)Oc1ccc(CNCCCN(C)C)cc1-n1c(CN2CCN(C(=O)COc3ccc(Cl)cc3)CC2)nc2ccccc2c1=O [Compound 22]
Selectivity score [1]: 3.3
EC50 ([3]; BJeLR, read-out: EC50 (BJeLR)): 2300 nM

CC(C)Oc1ccc(CN2CCN(CCO)CC2)cc1-n1c(CN2CCN(C(=O)COc3ccc(Cl)cc3)CC2)nc2ccccc2c1=O [Compound 23]
Selectivity score [1]: 2.8
EC50 ([3]; BJeLR, read-out: EC50 (BJeLR)): 1200 nM

CC(C)Oc1ccc(CNCCOCCO)cc1-n1c(CN2CCN(C(=O)COc3ccc(Cl)cc3)CC2)nc2ccccc2c1=O [Compound 24]
Selectivity score [1]: 2.5
EC50 ([3]; BJeLR, read-out: EC50 (BJeLR)): 2100 nM

CC(C)Oc1ccc(CN2CCOCC2)cc1-n1c(CN2CCN(C(=O)COc3ccc(Cl)cc3)CC2)nc2ccccc2c1=O [Compound 40, 2-((4-(2-(4-chlorophenoxy)ethanoyl)piperazin-1-yl)methyl)-3-(2-isopropoxy-5-(morpholinomethyl)phenyl)quinazolin-4(3H)-one]
EC50 ([3]; BJeLR, read-out: EC50 (BJeLR)): 130 nM
EC50 [3, 9]: 130 nM

CC(C)Oc1c(CN2CCOCC2)cccc1-n1c(CN2CCN(C(=O)COc3ccc(Cl)cc3)CC2)nc2ccccc2c1=O [Compound 51]
EC50 [3, 9]: 1170 nM

N#CC(=C(/N)Sc1ccccc1N)/C(C#N)=C(\N)Sc1ccccc1N [Compound U0126]
rescue of siGPX4-induced cell death [4]: rescued

O=[N+]([O-])c1ccc(Cl)c(Cl)c1 [DCNB]
RSL phenotype (oncogenic-RAS-selective lethality) [1]: none of the other anti-oxidant targeting compounds displayed an RSL phenotype

CCN(CC)C(=S)S [DETC]
RSL phenotype (oncogenic-RAS-selective lethality) [1]: none of the other anti-oxidant targeting compounds displayed an RSL phenotype

CN(C)C(=O)/N=N/C(=O)N(C)C [DIA]
RSL phenotype (oncogenic-RAS-selective lethality) [1]: none of the other anti-oxidant targeting compounds displayed an RSL phenotype

CCc1ccc(/C=C2\SC(=S)N(CCC(=O)NCCCN3CCOCC3)C2=O)cc1 [DPI2]
GFP-ALOX5 translocation to the nuclear membrane [5]: translocated GFP-ALOX5 to the nuclear membrane

CC(C)c1onc(C(=O)N2CCN(C(c3ccccc3)c3ccccc3)CC2)c1[N+](=O)[O-] [DPI10]
GFP-ALOX5 translocation to the nuclear membrane [5]: translocated GFP-ALOX5 to the nuclear membrane

Nc1nc(CCl)nc(Nc2ccc3ccccc3c2)n1 [DPI17]
GFP-ALOX5 translocation to the nuclear membrane [5]: translocated GFP-ALOX5 to the nuclear membrane

N[C@@H](CCC(=O)N[C@@H](CS)C(=O)NCC(=O)O)C(=O)O [GSH, reduced glutathione]
rescue from erastin lethality by GSH supplementation ([6]; 1 mM GSH): rescued cells from erastin lethality

COc1ccc2c(c1)c(CC(=O)O)c(C)n2C(=O)c1ccc(Cl)cc1 [Indomethacin]
suppression of erastin-induced cell death [2]: only minimally effective in suppressing erastin lethality

CC(=O)N[C@@H](CS)C(=O)O [NAC, N-acetyl-cysteine]
rescue from erastin lethality by NAC supplementation [7]: rescued cells from erastin lethality

c1ccc2c(c1)SCc1c-2[nH]c2ccccc12 [PD-146176]
suppression of erastin-induced cell death [2]: strongly suppressed erastin-induced cell death

CC(C)Oc1ccncc1-n1c(CN2CCN(C(=O)COc3ccc(Cl)cc3)CC2)nc2ccccc2c1=O [PYR, 2-((4-(2-(4-chlorophenoxy)ethanoyl)piperazin-1-yl)methyl)-3-(4-isopropoxypyridin-3-yl)quinazolin-4(3H)-one]
RSL phenotype (oncogenic-RAS-selective lethality) [1]: did not display lethality

CN[C@@H]1C[C@H]2O[C@@](C)([C@@H]1OC)n1c3ccccc3c3c4c(c5c6ccccc6n2c5c31)C(=O)NC4 [STS, Staurosporine]
GFP-ALOX5 translocation to the nuclear membrane [5]: did not

CC(c1cc2ccccc2s1)N(O)C(N)=O (stereo not drawn) [Zileuton]
rescue of siGPX4-induced cell death ([4]; 10 μM U0126, 100 μM Vit. E, 100 μM DFOM, 50 μM ZIL): rescued
suppression of cell death induced by RSL compounds [2]: strongly suppressed cell death induced by all RSL compounds
suppression of cell death induced by non-RSL compounds [2]: not able to suppress cell death induced by eleven non-RSL compounds
suppression of erastin-induced cell death [2]: strongly suppressed erastin-induced cell death

CC(C)Oc1ccccc1-n1c(CN2CCN(C(=O)c3ccc(Cl)cc3)CC2)nc2ccccc2c1=O [dMK, 2-((4-(4-chlorophenylcarbonyl)piperazin-1-yl)methyl)-3-(2-isopropoxyphenyl)quinazolin-4(3H)-one]
RSL phenotype (oncogenic-RAS-selective lethality) [1]: did not display lethality

C[C@H]1O[C@@H](O[C@H]2[C@@H](O)C[C@H](O[C@H]3[C@@H](O)C[C@H](O[C@H]4CC[C@@]5(C)[C@H](CC[C@@H]6[C@@H]5C[C@@H](O)[C@]5(C)[C@@H](C7=CC(=O)OC7)CC[C@]65O)C4)O[C@@H]3C)O[C@@H]2C)C[C@H](O)[C@@H]1O [digoxin, Digoxin]
GFP-ALOX5 translocation to the nuclear membrane [5]: induced GFP-ALOX5 translocation

C[C@H](CCC(=O)O)C[C@H](C)C[C@H](C)C(=O)/C=C(\O)[C@H](C)C[C@H](C)C/C=C/[C@@H](C)[C@@H](O)[C@@H](C)[C@@H](O)C[C@@H]1CC[C@@](C)([C@H]2CC[C@@](C)([C@@H](C)O)O2)O1 [ionomycin]
GFP-ALOX5 translocation to the nuclear membrane [8]: induced localization of GFP-ALOX5 to the nuclear membrane in all BJ-derived cell lines

Vitamin E [Vit. E]
rescue of siGPX4-induced cell death [4]: rescued

lysophosphatidyl choline [lyso-PC]
differential cytotoxicity between BJeH and BJeLR ([1]; lyso-PC alone, 24 hours): did not show differential cytotoxicity
effect of lyso-PC on erastin-induced cell death [6]: modestly sensitized cells to erastin-induced cell death
